# From publication PMC10761696, “Avapritinib-based SAR studies unveil a binding pocket in KIT and PDGFRA” (Nature Communications, 2024)
# “And” between values parts separate entries of the source, which are not always exact repeats. Equal values may be shown once. Read-outs that look alike come from different tables or passages of the source.
# How the values were obtained:
# [1] = test system: MDR1; assay: MDCKII-MDR1 permeability assay; settings: dog; for recovery at 2 h, 10 µM: MDCKII-MDR1, assay conc. 10; for efflux ratio at 2 h, 10 µM: MDCK-MDR1
# [2] = MDCKII-MDR1 permeability assay; settings: dog; for Papp B→A at 2 h, 10 µM: MDCK-MDR1
# [3] = test system: GIST-T1; assay: CellTiter-Glo (CTG) GR50, GIST-T1; settings: Homo sapiens
# [4] = test system: ZR-75-1; assay: CellTiter-Glo (CTG) EC50, ZR-75-1 breast cancer control cell line; assay type: cell-based, human
# Experimental: (§1) Cell line authenticity was confirmed by STR analysis at Eurofins Genomics. All cell lines were tested regularly for mycoplasma contamination using the Mycoplasmacheck Service at Eurofins Genomics. […] Following incubation for 24 h in a humidified atmosphere at 37 °C and 5% CO2, cells were treated with inhibitors in serial dilutions ranging from 30 µM down to 0.1 nM using an Echo650 acoustic liquid handler (Beckman Coulter). Cell viability was analyzed on day 5 using the CellTiter-Glo® assay (Promega) using 500 ms integration time. The obtained data were normalized to the plate positive control (30 µM staurosporine) and negative control (DMSO) and subsequently analyzed and fitted with the Quattro Software Suite (Quattro Research) using a four-parameter logistic model. As quality control, the Z’-factor was calculated from 16 positive and negative control values. Only assay results showing a Z’-factor ≥0.5 were used for further analysis. All experimental points were measured in duplicates for each plate and were independently replicated in at least three plates.
# [5] = test system: T1-V654A; assay: CellTiter-Glo (CTG) GR50, T1-V654A; settings: Homo sapiens
# [6] = test system: T1-a-5258; assay: CellTiter-Glo (CTG) GR50, T1-a-5258; settings: Homo sapiens
# [7] = molecular target: KIT-D816H (Homo sapiens, UniProt P10721, D816H); assay: Activity-based HTRF KinEASE assay, KIT-D816H; assay type: biochemical
# [8] = test system: SK-LMS-1; assay: CellTiter-Glo (CTG) GR50, SK-LMS-1 control cell line; settings: for CTG GR50 SK-LMS-1: mean ± s.d., n = 3, control cell line; for CTG GR50 SK-LMS-1, single determinations: raw data of Supp. Tab. 2, independent experiments, unit from Supp. Tab. 2
# [9] = test system: MDA-MB-175VII; assay: CellTiter-Glo (CTG) EC50, MDA-MB-175VII breast cancer control cell line; assay type: cell-based, human
# Experimental: as §1
# [10] = molecular target: T1, PDGFRA-D842V (Homo sapiens, UniProt P16234, D842V); assay: Activity-based HTRF KinEASE assay, PDGFRA-D842V; assay type: biochemical
# T1 construct: purchased Invitrogen PV4203 (lot #2343231B)
# [11] = test system: GIST-48B; assay: CellTiter-Glo (CTG) GR50, GIST-48B control cell line (off-target toxicity); settings: ratio of GR50 values; for GIST-48B/D842V: source data sheet
# [12] = test system: T1-T670I; assay: CellTiter-Glo (CTG) GR50, T1-T670I; settings: Homo sapiens
# [13] = MDCK-MDR1, Papp A->B, MDCKII-MDR1, assay conc. 10, apical to basolateral
# [14] = GISTT1, read-out: KIT CTG GR50 GIST-T1, mean ± s.d., n ≥ 3, GR50 half-maximal growth inhibition rate
# [15] = Homo sapiens, ZR-75-1, mean ± s.d., n = 3, control cell line, read-out: CTG EC50 ZR-75-1
# [16] = Homo sapiens, ZR-75-1, raw data of Supp. Tab. 2, independent experiments, unit from Supp. Tab. 2, read-out: CTG EC50 ZR-75-1, single determinations
# [17] = read-out: CTG GR50 T1-V654A, single determinations, raw data of Supp. Tab. 1, independent experiments, unit from Supp. Tab. 1
# [18] = read-out: KIT CTG GR50 T1-V654A, mean ± s.d., n ≥ 3 (* n = 2 for ava)
# [19] = read-out: CTG GR50 T1-a-5258, single determinations, raw data of Supp. Tab. 1, independent experiments, unit from Supp. Tab. 1
# [20] = read-out: PDGFRA CTG GR50 T1-a-5258, mean ± s.d., n ≥ 3, triple mutant D842V, G652E, V658A
# [21] = mean ± s.d., n ≥ 3, ATP at KM (12 µM), read-out: HTRF IC50 KIT-D816H
# [22] = raw data of Table 1, independent experiments, unit from Table 1, read-out: HTRF IC50 KIT-D816H, single determinations
# [23] = Homo sapiens, MDA-MB-175-VII, read-out: CTG EC50 MDA-MB-175VII, mean ± s.d., n = 3, control cell line
# [24] = Homo sapiens, MDA-MB-175-VII, read-out: CTG EC50 MDA-MB-175VII, single determinations, raw data of Supp. Tab. 2, independent experiments, unit from Supp. Tab. 2
# [25] = mean ± s.d., n ≥ 3, ATP at KM (14 µM), read-out: HTRF IC50 PDGFRA-D842V
# [26] = raw data of Table 1, independent experiments 1-3, unit from Table 1, read-out: HTRF IC50 PDGFRA-D842V, single determinations
# [27] = read-out: CTG GR50 T1-T670I, single determinations, raw data of Supp. Tab. 1, independent experiments, unit from Supp. Tab. 1
# [28] = read-out: KIT CTG GR50 T1-T670I, mean ± s.d., n ≥ 3
# [29] = GISTT1, read-out: CTG GR50 GIST-T1, single determinations, raw data of Table 1, independent experiments, unit from Table 1
# [30] = MDCK-MDR1, MDCKII-MDR1 (Papp A→B), at 10 µM, 2 h, 37 °C, unit inferred
# Sequence of KIT-D816H (P10721 26-976 D816H): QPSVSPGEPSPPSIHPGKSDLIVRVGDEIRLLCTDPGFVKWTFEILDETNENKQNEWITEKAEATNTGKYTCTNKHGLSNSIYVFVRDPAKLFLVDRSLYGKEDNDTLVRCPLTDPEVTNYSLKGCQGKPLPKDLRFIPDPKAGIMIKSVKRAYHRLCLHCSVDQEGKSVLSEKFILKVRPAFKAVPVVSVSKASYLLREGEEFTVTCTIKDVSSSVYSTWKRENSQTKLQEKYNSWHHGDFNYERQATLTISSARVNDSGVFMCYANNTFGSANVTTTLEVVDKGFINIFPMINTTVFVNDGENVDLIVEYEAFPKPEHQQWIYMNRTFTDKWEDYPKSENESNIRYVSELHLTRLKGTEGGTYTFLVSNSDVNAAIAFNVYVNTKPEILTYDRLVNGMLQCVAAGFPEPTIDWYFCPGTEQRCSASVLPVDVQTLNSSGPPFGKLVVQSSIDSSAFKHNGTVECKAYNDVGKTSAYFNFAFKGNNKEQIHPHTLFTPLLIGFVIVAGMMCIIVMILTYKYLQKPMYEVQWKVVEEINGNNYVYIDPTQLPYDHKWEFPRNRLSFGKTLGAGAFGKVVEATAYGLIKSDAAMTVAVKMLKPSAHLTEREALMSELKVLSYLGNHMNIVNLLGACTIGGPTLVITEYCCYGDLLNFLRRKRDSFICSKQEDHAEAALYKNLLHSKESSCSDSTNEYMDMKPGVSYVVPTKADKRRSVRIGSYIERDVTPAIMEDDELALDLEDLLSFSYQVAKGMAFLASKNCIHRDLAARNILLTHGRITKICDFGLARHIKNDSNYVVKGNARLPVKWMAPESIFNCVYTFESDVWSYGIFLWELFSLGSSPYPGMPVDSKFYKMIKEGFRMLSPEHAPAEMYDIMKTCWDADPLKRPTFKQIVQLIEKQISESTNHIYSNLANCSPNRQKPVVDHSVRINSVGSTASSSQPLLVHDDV
# T1 sequence (P16234 24-1089 D842V): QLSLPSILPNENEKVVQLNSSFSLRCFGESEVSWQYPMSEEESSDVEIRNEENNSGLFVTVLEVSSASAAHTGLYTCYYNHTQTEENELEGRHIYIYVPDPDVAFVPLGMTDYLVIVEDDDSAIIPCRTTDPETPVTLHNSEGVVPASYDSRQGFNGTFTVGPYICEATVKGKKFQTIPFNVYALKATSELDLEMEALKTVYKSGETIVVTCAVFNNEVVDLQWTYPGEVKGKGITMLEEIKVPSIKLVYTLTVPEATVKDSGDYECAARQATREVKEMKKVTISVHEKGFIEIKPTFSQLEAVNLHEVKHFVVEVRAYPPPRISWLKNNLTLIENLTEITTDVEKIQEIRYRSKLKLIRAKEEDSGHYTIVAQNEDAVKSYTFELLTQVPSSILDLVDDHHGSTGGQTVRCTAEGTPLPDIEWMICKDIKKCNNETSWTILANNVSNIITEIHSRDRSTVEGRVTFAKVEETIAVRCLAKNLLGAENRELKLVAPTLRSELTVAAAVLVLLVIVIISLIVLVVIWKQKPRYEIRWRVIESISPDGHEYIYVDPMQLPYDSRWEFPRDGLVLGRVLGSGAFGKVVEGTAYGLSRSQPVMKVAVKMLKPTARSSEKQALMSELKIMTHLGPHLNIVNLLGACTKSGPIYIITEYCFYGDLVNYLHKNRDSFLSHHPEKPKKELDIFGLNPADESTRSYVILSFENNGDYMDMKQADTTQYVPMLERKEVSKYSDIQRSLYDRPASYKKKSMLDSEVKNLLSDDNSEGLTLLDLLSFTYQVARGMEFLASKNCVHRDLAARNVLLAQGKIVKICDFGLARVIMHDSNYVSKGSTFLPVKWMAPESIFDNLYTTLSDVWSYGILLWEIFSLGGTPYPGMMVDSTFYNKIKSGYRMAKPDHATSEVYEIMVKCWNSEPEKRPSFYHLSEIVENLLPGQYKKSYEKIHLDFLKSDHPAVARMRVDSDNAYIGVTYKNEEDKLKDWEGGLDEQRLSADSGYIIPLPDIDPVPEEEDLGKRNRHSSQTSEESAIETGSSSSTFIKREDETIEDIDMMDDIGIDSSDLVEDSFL
Compound,"EC50 [4, 15] [µM]","EC50 [4, 16] [µM]","IC50 [7, 21] [nM]","IC50 [7, 22]","EC50 [9, 23] [µM]","EC50 [9, 24] [µM]","IC50 [10, 25] [nM]","IC50 [10, 26]","GI50 [3, 14] [nM]","GI50 [5, 17] [nM]","GI50 [5, 18] [nM]","GI50 [6, 19] [nM]","GI50 [6, 20] [nM]",CTG GR50 SK-LMS-1 [8],ratio GIST-48B/ T1-a-D842V [11],GIST-48B/D842V [11],"GI50 [12, 27] [nM]","GI50 [12, 28] [nM]","GI50 [3, 29] [nM]","CTG GR50 SK-LMS-1, single determinations [8]",also measured
Cn1cc(-c2cc3c(N4CCN(c5ncc(C(C)(N)c6ccc(F)cc6)cn5)CC4)ncnn3c2)cn1 (stereo not shown) [1 (avapritinib)],–,–,–,–,–,–,–,–,–,–,–,–,–,–,–,–,–,–,–,–,"recovery at 2 h, 10 µM ([1]; MDCK-MDR1, Recovery A->B): 87.6%; recovery at 2 h, 10 µM ([1]; MDCK-MDR1, Recovery B->A): 150%; Papp A→B at 2 h, 10 µM [2, 13]: 12.5 ×10⁻⁶ cm/s"
Cn1cc(-c2cc3c(N4CCNCC4)ncnn3c2)cn1 [Compound 3],≥ 10,≥ 10,1540 ± 852,1400 nM and 766 nM and 2450 nM,≥ 10,≥ 10,5590 ± 2560,2500 nM and 8760 nM and 5500 nM,≥ 10000,–,–,–,–,–,1,1,–,–,≥ 10000,≥10 µM,–
Cn1cc(-c2cc3c(N4CCN(c5ncccn5)CC4)ncnn3c2)cn1 [Compound 4],≥ 10,≥ 10,76 ± 45,27.5 nM and 82.1 nM and 118 nM,≥ 10,≥ 10,35 ± 13,49.6 nM and 36.2 nM and 18.5 nM,5270 ± 509,≥ 10000,≥ 10000,≥ 10000,≥ 10000,–,5,5.3,≥ 10000,≥ 10000,5800,≥10 µM,fold increase in potency with respect to PDGFRA-D842V ([10]; 4 (pyrimidine added) compared with 3): 160 fold
Cn1cc(-c2cc3c(N4CCN(c5ncc(Cc6ccccc6)cn5)CC4)ncnn3c2)cn1 [Compound 5],≥ 10,≥ 10,–,–,≥ 10,≥ 10,–,–,1480 ± 1200,≥ 10000,≥ 10000,6600,8260 ± 1700,–,–,–,≥ 10000,≥ 10000,–,≥10 µM,–
CCN[C@@](C)(c1ccc(F)cc1)c1cnc(N2CCN(c3ncnn4cc(-c5cnn(C)c5)cc34)CC2)nc1 [Compound 9],≥ 10,≥ 10,0.4 ± 0.2,0.26 nM and 0.54 nM and 0.27 nM,≥ 10,≥ 10,< 0.1,< 0.1 nM,92 ± 16,532,575 ± 159,1160,1330 ± 220,9.041 ± 1.661 µM and 9.041 µM,155,155,1330,1500 ± 223,109,7.123 µM and 10 µM,–

# Continued, in another order:
"EC50 [4, 15] [µM]","EC50 [4, 16] [µM]","IC50 [7, 21] [nM]","IC50 [7, 22]","EC50 [9, 23] [µM]","EC50 [9, 24] [µM]","IC50 [10, 25] [nM]","IC50 [10, 26]",Compound,"GI50 [3, 14] [nM]","GI50 [5, 17] [nM]","GI50 [5, 18] [nM]","GI50 [6, 19] [nM]","GI50 [6, 20] [nM]",CTG GR50 SK-LMS-1 [8],ratio GIST-48B/ T1-a-D842V [11],GIST-48B/D842V [11],"GI50 [12, 27] [nM]","GI50 [12, 28] [nM]","GI50 [3, 29] [nM]","CTG GR50 SK-LMS-1, single determinations [8]",also measured
6.48,7.51,9300 ± 1210,7.91 µM and 10 µM (2×),9.19,10,7340,4470 nM and 9300 nM and 8260 nM,"Cn1cc(-c2cc3c(Cl)ncnn3c2)cn1 [Compound 2, 4-chloro-6-(1-methyl-1H-pyrazol-4-yl)pyrrolo[2,1-f][1,2,4]triazine]",6730 ± 2070,6090,7560 ± 991,1380,1340 ± 70,7.713 ± 3.929 µM and 7.713 µM,3,3,3550,2870 ± 510,–,–,"EC50 ([4]; raw data of Supp. Tab. 2, independent experiments, unit from Supp. Tab. 2, read-out: CTG EC50 ZR-75-1, single determinations): 7.14 µM and 4.8 µM; EC50 ([9]; read-out: CTG EC50 MDA-MB-175VII, single determinations, raw data of Supp. Tab. 2, independent experiments, unit from Supp. Tab. 2): 7.57 µM"
≥ 10,≥ 10,2160 ± 167,2280 nM and 2040 nM,≥ 10,≥ 10,7350 ± 884,6110 nM and 7810 nM and 8130 nM,Cn1cc(-c2cc3c(N4CC5(CN(c6ncc(Cc7ccccc7)cn6)C5)C4)ncnn3c2)cn1 [Compound 6],≥ 10000,≥ 10000,≥ 10000,8790,9530 ± 650,–,1,1,≥ 10000,≥ 10000,≥ 10000,≥10 µM,–
≥ 10,≥ 10,2.3 ± 1.7,3.5 nM and 2.4 nM and 1.1 nM,≥ 10,≥ 10,0.4 ± 0.1,0.28 nM and 0.38 nM and 0.56 nM,CN(C)[C@@](C)(c1ccc(F)cc1)c1cnc(N2CCN(c3ncnn4cc(-c5cnn(C)c5)cc34)CC2)nc1 [Compound 8],254 ± 74,999,1170 ± 264,1400,1660 ± 250,8.631 ± 2.371 µM and 8.631 µM,33,33,2770,2560 ± 258,350,5.894 µM and 10 µM,"fold decrease in potency at the biochemical level compared to avapritinib ([10]; HTRF IC50, PDGFRA-D842V and KIT-D816H): 3–5 fold"
≥ 10,≥ 10,0.5 ± 0.1,0.38 nM and 0.43 nM and 0.65 nM,≥ 10,≥ 10,< 0.1,< 0.1 nM,CC(=O)N[C@@](C)(c1ccc(F)cc1)c1cnc(N2CCN(c3ncnn4cc(-c5cnn(C)c5)cc34)CC2)nc1 [Compound 10],39 ± 6,268,293 ± 83,1570,2060 ± 430,8.787 ± 2.101 µM and 8.787 µM,186,186,376,386 ± 39,44,6.361 µM and 10 µM,"efflux ratio at 2 h, 10 µM [1]: 0.48; recovery at 2 h, 10 µM ([1]; MDCK-MDR1, Recovery A->B): 44.1%; recovery at 2 h, 10 µM ([1]; MDCK-MDR1, Recovery B->A): 48.4%; Papp B→A at 2 h, 10 µM [2]: 5.43 ×10⁻⁶ cm/s; Papp A→B at 2 h, 10 µM [2, 30]: 11.3 ×10⁻⁶ cm/s; Papp A→B at 2 h, 10 µM [2, 13]: 11.3 ×10⁻⁶ cm/s"
≥ 10,≥ 10,0.5 ± 0.2,0.7 nM and 0.54 nM and 0.37 nM,≥ 10,≥ 10,< 0.1,< 0.1 nM,C=CC(=O)N[C@@](C)(c1ccc(F)cc1)c1cnc(N2CCN(c3ncnn4cc(-c5cnn(C)c5)cc34)CC2)nc1 [Compound 11],39 ± 7,302,347 ± 108,2970,3380 ± 360,6.459 ± 3.067 µM and 6.459 µM,144,144,402,413 ± 44,46,–,"efflux ratio at 2 h, 10 µM [1]: 0.2; recovery at 2 h, 10 µM ([1]; MDCK-MDR1, Recovery A->B): 34.2%; recovery at 2 h, 10 µM ([1]; MDCK-MDR1, Recovery B->A): 38.9%; Papp B→A at 2 h, 10 µM [2]: 1.99 ×10⁻⁶ cm/s; Papp A→B at 2 h, 10 µM [2, 30]: 10.1 ×10⁻⁶ cm/s"
